A word on the EC50: it is the concentration needed to bring the measured effect to its halfway point. As a reminder, the CC50 is the concentration that lowers cell viability or growth by half. In general, AUC(0-t) refers to exposure summed from dosing to a finite time, without extrapolation to infinity.

Chain of Voltage-gated inwardly rectifying potassium channel KCNH2 (Q12809 whole entry): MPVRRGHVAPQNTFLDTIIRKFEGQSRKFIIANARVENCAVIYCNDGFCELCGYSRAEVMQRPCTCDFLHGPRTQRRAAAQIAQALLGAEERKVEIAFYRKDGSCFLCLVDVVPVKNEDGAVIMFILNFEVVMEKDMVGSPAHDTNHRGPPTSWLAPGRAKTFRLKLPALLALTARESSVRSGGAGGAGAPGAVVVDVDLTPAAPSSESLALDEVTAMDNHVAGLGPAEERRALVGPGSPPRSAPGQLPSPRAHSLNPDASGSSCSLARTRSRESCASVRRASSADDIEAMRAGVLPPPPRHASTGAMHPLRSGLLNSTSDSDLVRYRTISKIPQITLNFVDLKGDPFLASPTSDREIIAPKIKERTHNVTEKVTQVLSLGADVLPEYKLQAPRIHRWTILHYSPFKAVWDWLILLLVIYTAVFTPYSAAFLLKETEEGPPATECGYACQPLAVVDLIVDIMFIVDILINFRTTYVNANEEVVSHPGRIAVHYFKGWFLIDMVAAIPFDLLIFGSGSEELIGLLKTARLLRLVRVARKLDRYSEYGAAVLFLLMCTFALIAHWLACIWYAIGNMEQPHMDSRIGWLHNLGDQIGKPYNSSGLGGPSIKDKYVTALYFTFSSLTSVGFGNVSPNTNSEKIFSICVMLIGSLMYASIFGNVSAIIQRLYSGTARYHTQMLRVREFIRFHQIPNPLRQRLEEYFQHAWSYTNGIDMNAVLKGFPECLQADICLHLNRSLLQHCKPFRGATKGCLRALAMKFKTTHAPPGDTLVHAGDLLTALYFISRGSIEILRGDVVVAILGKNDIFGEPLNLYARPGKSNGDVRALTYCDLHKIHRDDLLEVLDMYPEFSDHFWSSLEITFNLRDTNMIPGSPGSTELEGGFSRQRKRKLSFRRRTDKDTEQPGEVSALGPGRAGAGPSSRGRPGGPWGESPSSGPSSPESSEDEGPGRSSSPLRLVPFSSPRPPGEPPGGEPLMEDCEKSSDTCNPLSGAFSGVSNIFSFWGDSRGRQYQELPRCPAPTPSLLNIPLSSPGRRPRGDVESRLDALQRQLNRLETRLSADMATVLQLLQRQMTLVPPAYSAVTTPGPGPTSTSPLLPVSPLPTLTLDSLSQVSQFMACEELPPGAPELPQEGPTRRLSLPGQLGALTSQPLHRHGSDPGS

System in the first data set: not listed separately
Description: Metabolic stability in mouse liver microsomes assessed as intrinsic clearance at 1 uM incubated upto 60 mins in presence of NADP by LC-MS analysis. It is filed as ADME, Microsome. The note with it: read-out: CLH.
For `CCOC(=O)N1CCc2c([nH]c3ccc(Cl)cc23)C1c1ccc(OC)cc1` (centres undefined), the CLint scaled at 1 µM was 11.4 L/h/kg. Same read-out and setting: the value for `COc1ccc(C2c3[nH]c4ccc(Cl)cc4c3CCN2C(=O)OCCF)cc1` (centres undefined) was 13.6 L/h/kg; that for `COC(=O)N1CCc2c([nH]c3ccc(Cl)cc23)C1c1ccc(OC)cc1` (centres undefined) was 10.4 L/h/kg. In the case of `CCOC(=O)N1CCc2c([nH]c3ccc(Cl)cc23)C1c1ccccc1` (centres undefined), the CLint scaled at 1 µM turned out to be 5.52 L/h/kg. Consider `CCOC(=O)N1CCc2c([nH]c3ccc(Cl)cc23)C1c1cccc(F)c1` (centres undefined), for which the CLint scaled at 1 µM was 9.06 L/h/kg. As to `CCOC(=O)N1CCc2c([nH]c3ccc(Cl)cc23)C1c1ccc(Cl)cc1` (centres undefined), the CLint scaled at 1 µM was found to be 13.3 L/h/kg. In the case of `COc1ccc(C2c3[nH]c4ccc(Cl)cc4c3CCN2C(=O)Oc2ccc(C)cc2)cc1` (centres undefined), the CLint scaled at 1 µM is less than 0.3 L/h/kg.

`COc1ccc(C2c3[nH]c4ccc(Cl)cc4c3CCN2C(=O)Oc2ccc(Cl)cc2)cc1` (centres undefined): the CLint scaled at 1 µM was less than 0.3 L/h/kg. Turning to `COCCOC(=O)N1CCc2c([nH]c3ccc(Cl)cc23)C1c1ccc(OC)cc1` (centres undefined), the CLint scaled at 1 µM came to 21.9 L/h/kg. `CCOC(=O)N1CCc2c([nH]c3ccc(Cl)cc23)C1c1cccc(Cl)c1` (centres undefined): the CLint scaled at 1 µM amounted to 8.58 L/h/kg.

For `COc1ccc(C2c3[nH]c4ccc(Cl)cc4c3CCN2C(=O)Oc2ccccc2)cc1` (centres undefined), the CLint scaled at 1 µM is 1.32 L/h/kg.

System in another data set: not listed separately
Description: Toxicity in CHO cells assessed as chromosomal aberration. It is filed as cell-based, Cricetulus griseus. The note with it: chinese hamster.
With `COc1ccc([C@H]2c3[nH]c4ccc(Cl)cc4c3CCN2C(=O)Oc2ccc(Cl)cc2)cc1` [EMVODODSTAT], the Activity entry is reported as “Non-Toxic”.

A further data set deals with Dihydroorotate dehydrogenase (quinone), mitochondrial (Homo sapiens, UniProt Q02127). Description: Inhibition of DHODH in human HeLa cells assessed as reduction in hypoxia-induced VEGF expression incubated for 48 hrs by ELISA assay. It is filed as cell-based.
Chain of Dihydroorotate dehydrogenase (quinone), mitochondrial (Q02127 whole entry): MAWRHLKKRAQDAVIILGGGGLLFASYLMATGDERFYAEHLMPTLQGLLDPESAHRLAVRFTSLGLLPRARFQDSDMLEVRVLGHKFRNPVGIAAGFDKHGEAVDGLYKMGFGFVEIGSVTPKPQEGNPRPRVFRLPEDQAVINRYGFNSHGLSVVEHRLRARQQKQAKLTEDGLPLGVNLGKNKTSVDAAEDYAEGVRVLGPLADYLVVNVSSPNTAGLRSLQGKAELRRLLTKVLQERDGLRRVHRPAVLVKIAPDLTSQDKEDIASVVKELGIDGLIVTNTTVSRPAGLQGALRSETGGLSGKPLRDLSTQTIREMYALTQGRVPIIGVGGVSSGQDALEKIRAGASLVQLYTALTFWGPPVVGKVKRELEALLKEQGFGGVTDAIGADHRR
Details: not given; call rule not given here
For orientation: ELISA stands for enzyme-linked immunosorbent assay.
Regarding `COc1ccc([C@H]2c3[nH]c4ccc(Br)cc4c3C[C@@H]3C(=O)N(C4CCCCC4)C(=S)N23)cc1`, the 50% effective concentration (EC50) stood at 0.003 µM. On the same count and under the same terms, the value for `COc1ccc([C@H]2c3[nH]c4ccc(Cl)cc4c3C[C@@H]3C(=O)N(C4CCCCC4)C(=S)N23)cc1` was 0.001 µM. As for `Brc1ccc2[nH]c3c(c2c1)CCCC3n1cccc1` (centres undefined), the EC50 amounted to 0.013 µM.

In the case of `COc1ccc([C@H]2c3[nH]c4ccccc4c3C[C@@H]3C(=O)N(C4CCCCC4)C(=S)N23)cc1`, the EC50 amounted to 0.68 µM.

For another data set, the system named is HT-1080. Kind of data set: Antitumor activity against human HT-1080 cells xenografted in mouse assessed as tumor growth inhibition at 10 mg/kg, po bid measured for 14 days relative to control. Type of data set: functional. Conditions: HT-1080, 336 h, time 14 day, read-out: TGI. In general terms: In xenograft studies the graft and the host belong to different species.
`CCOC(=O)N1CCc2c([nH]c3ccc(Cl)cc23)C1c1ccc(OC)cc1` (centres undefined): the inhibition in vivo at 10 mg/kg turned out to be 2%.

System in another data set: not listed separately
Description: Oral bioavailability in Sprague-Dawley rat at 3 mg/kg by LC-MS/MS analysis. It is filed as ADME, organism-based. The note with it: in vivo.
As to `COc1ccc([C@H]2c3[nH]c4ccc(Cl)cc4c3CCN2C(=O)Oc2ccc(Cl)cc2)cc1` [EMVODODSTAT], the bioavailability is 119%.

A further data set deals with HT-1080. Kind of data set: Antitumor activity against human HT-1080 cells xenografted in mouse assessed as tumor growth inhibition at 2 mg/kg, po bid measured for 21 days relative to control. Conditions: HT-1080, 504 h, time 21 day, read-out: TGI. Type of data set: functional.
Turning to `COc1ccc(C2c3[nH]c4ccc(Cl)cc4c3CCN2C(=O)Oc2ccc(Cl)cc2)cc1` (centres undefined), the inhibition in vivo at 2 mg/kg was found to be 63%.

Another data set addresses Voltage-gated inwardly rectifying potassium channel KCNH2 (Homo sapiens, UniProt Q12809). Kind of data set: Inhibition of hERG (unknown origin).
Details: not given
Type of data set: toxicity. (Block of hERG is tested as a sign of cardiac risk.)
In the case of `COc1ccc([C@H]2c3[nH]c4ccc(Cl)cc4c3CCN2C(=O)Oc2ccc(Cl)cc2)cc1` [EMVODODSTAT], the “inhibition (INH)” value was “Not Active”.

Another data set deals with MOLM-13. Kind of data set: Cytotoxicity against human MOLM-13 cells assessed as reduction of cell viability incubated for 3 days by CellTiter-Glo assay. It is filed as functional, cell-based. Conditions: MOLM-13, 72 h.
`COc1ccc(C2c3c(c4cc(Cl)ccc4n3C)CCN2C(=O)Oc2ccc(Cl)cc2)cc1` (centres undefined): the concentration giving a half-maximal response (EC50) was greater than 1 µM. On the same count and under the same terms, the same measure for `O=C(Oc1ccc(Cl)cc1)N1CCn2c(cc3ccc(Cl)cc32)C1c1ccccc1` (centres undefined): greater than 1 µM.

Staying with this data set, now noted: MOLM-13, 72 h, time 3 day.
Regarding `COc1ccc(C2NCCc3c2[nH]c2ccccc32)cc1` (centres undefined), the CC50 is greater than 30 µM. `COc1ccc(C2NCCc3c2[nH]c2ccc(Cl)cc32)cc1` (centres undefined): the 50% cytotoxic concentration (CC50) came out at 1.2 µM. Turning to `CCOC(=O)N1CCc2c([nH]c3ccc(Cl)cc23)C1c1ccc(OC)cc1` (centres undefined), the CC50 came out at 0.025 µM. On the same count and under the same terms, the same measure for `CCOC(=O)N1CCc2c([nH]c3cc(F)ccc23)C1c1ccc(OC)cc1` (centres undefined): greater than 1 µM; for `COc1ccc(C2c3[nH]c4ccc(Cl)cc4c3CCN2C)cc1` (centres undefined): 0.337 µM. The same measure, in the same setting: the same measure for `COc1ccc(C2c3[nH]c4ccc(Cl)cc4c3CCN2C(=O)OC2CCCCC2)cc1` (centres undefined): 0.041 µM; for `COc1ccc(C2c3[nH]c4ccc(Cl)cc4c3CCN2C(=O)OCCF)cc1` (centres undefined): 0.037 µM; for `COc1ccc(C2c3[nH]c4ccc(Cl)cc4c3CCN2C(=O)Oc2ccccc2Cl)cc1` (centres undefined): 0.126 µM. As for `COC(=O)N1CCc2c([nH]c3ccc(Cl)cc23)C1c1ccc(OC)cc1` (centres undefined), the CC50 amounted to 0.04 µM. For `COc1ccc(C2c3[nH]c4cc(Cl)ccc4c3CCN2C(=O)Oc2ccc(Cl)cc2)cc1` (centres undefined), the cytotoxic concentration (CC50) came out at 0.306 µM.

On to `COc1ccc(C2c3[nH]c4ccc(C)cc4c3CCN2C(=O)Oc2ccc(Cl)cc2)cc1` (centres undefined), for which the 50% cytotoxic concentration (CC50) was 0.062 µM. Consider `COc1ccc(C2c3[nH]c4ccc(Cl)cc4c3CCN2C(=O)Oc2ccccc2C)cc1` (centres undefined), for which the half-maximal cytotoxic concentration (CC50) stood at 0.225 µM. `CCOC(=O)N1CCc2c([nH]c3ccc(Cl)cc23)C1c1cccc(OC)c1` (centres undefined): the CC50 stood at 0.048 µM. Take `COc1ccc(C2c3[nH]c4ccc(Cl)cc4c3CCN2C(=O)OC(C)C)cc1` (centres undefined): the CC50 came out at 0.037 µM.

On to `CCOC(=O)N1CCc2c([nH]c3ccc(Cl)cc23)C1c1ccccc1OC` (centres undefined), for which the CC50 was determined as 0.192 µM. For the compound `COc1ccc(C2c3[nH]c4ccc(Cl)cc4c3CCN2C(=O)OC(C)(C)C)cc1` (centres undefined), the CC50 was determined as 0.039 µM. In the case of `CCOC(=O)N1CCc2c([nH]c3cccc(F)c23)C1c1ccc(OC)cc1` (centres undefined), the cytotoxic concentration (CC50) was greater than 1 µM. As for `COc1ccc(C2c3[nH]c4ccc(Cl)cc4c3CCN2C(C)=O)cc1` (centres undefined), the CC50 is 0.274 µM.

Regarding `COc1ccc(C2c3[nH]c4ccc(Cl)cc4c3CCN2C=O)cc1` (centres undefined), the CC50 was 0.325 µM.

Take `CCOC(=O)N1CCc2c([nH]c3ccc(Cl)cc23)C1c1ccccc1` (centres undefined): the CC50 was found to be 0.052 µM.

Consider `CCOC(=O)N1CCc2c([nH]c3ccc(Cl)cc23)C1c1cccc(F)c1` (centres undefined), for which the CC50 was 0.053 µM. With `CCOC(=O)N1CCc2c([nH]c3ccc(Cl)cc23)C1c1ccc(Cl)cc1` (centres undefined), the cytotoxic concentration (CC50) turned out to be 0.019 µM. On to `COc1ccc(C2c3[nH]c4ccc(Cl)cc4c3CCN2C(=O)Oc2ccc(C)cc2)cc1` (centres undefined), for which the half-maximal cytotoxic concentration (CC50) came out at 0.031 µM. For the compound `COc1ccc(C2c3[nH]c4ccc(Cl)cc4c3CCN2C(=O)Oc2ccc(Cl)cc2)cc1` (centres undefined), the cytotoxic concentration (CC50) came out at 0.012 µM. For the compound `COCCOC(=O)N1CCc2c([nH]c3ccc(Cl)cc23)C1c1ccc(OC)cc1` (centres undefined), the CC50 came to 0.081 µM. On the same count and under the same terms, the value for `CCOC(=O)N1CCc2c([nH]c3ccc(Cl)cc23)C1c1cccc(Cl)c1` (centres undefined) was 0.034 µM; that for `COc1ccc(C2c3[nH]c4ccc(Cl)cc4c3CCN2C(=O)Oc2ccccc2)cc1` (centres undefined) was 0.034 µM.

For the compound `COc1ccc([C@H]2c3[nH]c4ccc(Cl)cc4c3CCN2C(=O)Oc2ccc(Cl)cc2)cc1` [EMVODODSTAT], the half-maximal cytotoxic concentration (CC50) amounted to 0.006 µM.

System in a further data set: not listed separately
Description: Toxicity in po dosed rat bone marrow by micronucleus assay. It is filed as organism-based. The note with it: in vivo.
Take `COc1ccc([C@H]2c3[nH]c4ccc(Cl)cc4c3CCN2C(=O)Oc2ccc(Cl)cc2)cc1` [EMVODODSTAT]: the Activity entry was “Non-Toxic”.

Another data set relates to HT-1080. Description: Antitumor activity against human HT-1080 cells xenografted in mouse assessed as tumor growth inhibition at 10 mg/kg, po bid measured for 21 days relative to control. Type of data set: functional. The note with it: HT-1080, 504 h, time 21 day, read-out: TGI.
In the case of `COc1ccc(C2c3[nH]c4ccc(Cl)cc4c3CCN2C(=O)Oc2ccc(Cl)cc2)cc1` (centres undefined), the inhibition in vivo at 10 mg/kg was 82%.

System in another data set: not listed separately
Description: Oral bioavailability in Beagle dog at 3 mg/kg by LC-MS/MS analysis. It is filed as ADME, organism-based, Canis lupus familiaris. Conditions: in vivo.
With `COc1ccc([C@H]2c3[nH]c4ccc(Cl)cc4c3CCN2C(=O)Oc2ccc(Cl)cc2)cc1` [EMVODODSTAT], the bioavailability is 8%.

In another data set the test system is HT-1080. Description: Antitumor activity against human HT-1080 cells xenografted in mouse assessed as tumor growth inhibition at 50 mg/kg, po bid measured for 14 days relative to control. The note with it: HT-1080, 336 h, time 14 day, read-out: TGI. Type of data set: functional.
As to `CCOC(=O)N1CCc2c([nH]c3ccc(Cl)cc23)C1c1ccc(OC)cc1` (centres undefined), the inhibition in vivo at 50 mg/kg was 52%.

System in the next data set: not listed separately
Description: AUC([…]) in mouse at 10 mg/kg, po administered via gavage measured upto 24 hrs by LC/MS-MS analysis. It is filed as ADME, organism-based. More on the design: dose 10 mg/kg, time < 24 hrs, route po. Conditions: in vivo.
In turn, `CCOC(=O)N1CCc2c([nH]c3ccc(Cl)cc23)C1c1ccc(OC)cc1` (centres undefined) showed an AUC(0-t) at 24 h of 0.58 µg·h/mL. Compound `CCOC(=O)N1CCc2c([nH]c3ccc(Cl)cc23)C1c1ccc(Cl)cc1` (centres undefined) had an AUC(0-t) at 24 h of 0.55 µg·h/mL.

In turn, `COc1ccc(C2c3[nH]c4ccc(Cl)cc4c3CCN2C(=O)Oc2ccc(C)cc2)cc1` (centres undefined) gave an exposure AUC(0-t) at 24 h of 2.2 µg·h/mL.

Consider `COc1ccc(C2c3[nH]c4ccc(Cl)cc4c3CCN2C(=O)Oc2ccc(Cl)cc2)cc1` (centres undefined), for which the exposure AUC(0-t) at 24 h turned out to be 8.6 µg·h/mL.

System in the next data set: not listed separately
Description: Genotoxicity in Salmonella typhimurium by Ames test. It is filed as toxicity. Conditions: salmonella enterica subsp. enterica serovar typhimurium.
As for `COc1ccc([C@H]2c3[nH]c4ccc(Cl)cc4c3CCN2C(=O)Oc2ccc(Cl)cc2)cc1` [EMVODODSTAT], the Activity entry was “Non-Toxic”.

(Values after ChEMBL document CHEMBL5247596, “SAR studies toward discovery of emvododstat (PTC299), a potent dihydroorotate dehydrogenase (DHODH) inhibitor” (Eur J Med Chem, 2022).)
